According to PubChem BioAssay AID256 (DTP/NCI, 2004):
“And” between values parts separate entries of the source, which are not always exact repeats. Identical values can stand only once. Inconclusive results and toxic doses are left out. The calls were made as follows: active = survival T/C of 150% or more; inactive = T/C below 125% in these data.

System: CD2F1 mice, L1210 leukemia ip, survival T/C
Test: NCI In Vivo Anticancer Drug Screen. Data for tumor model L1210 Leukemia (intraperitoneal) in CD2F1 (CDF1) mice
Settings: endpoint: mean survival time, higher = longer survival
Summary of the method: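 Compound-dosed mice with transplantable tumor versus matched vehicle controls; endpoint ratio T/C reported.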

[1] = dose: 50.0 mg/kg/injection, schedule: Q04DX003 (ip), vehicle: saline with Tween-80
[2] = dose: 100.0 mg/kg/injection, schedule: Q04DX003 (ip), vehicle: saline with Tween-80
[3] = dose: 100.0 mg/kg/injection, schedule: Q01DX001 (ip), vehicle: saline
[4] = dose: 200.0 mg/kg/injection, schedule: Q01DX001 (ip), vehicle: saline
[5] = dose: 400.0 mg/kg/injection, schedule: Q01DX001 (ip), vehicle: saline
[6] = dose: 6.25 mg/kg/injection, schedule: Q01DX009 (ip), vehicle: saline
[7] = dose: 200.0 mg/kg/injection, schedule: Q04DX003 (ip), vehicle: saline with Tween-80
[8] = dose: 400.0 mg/kg/injection, schedule: Q04DX003 (ip), vehicle: saline with Tween-80

Measured: T/C

O=C1OCC2CC=CCC12 (stereo not given)
inactive: dose: 50.0 mg/kg/injection, schedule: Q01DX001 (ip), vehicle: carboxymethylcellulose (CMC) 92 % of control | dose: 100.0 mg/kg/injection, schedule: Q01DX001 (ip), vehicle: carboxymethylcellulose (CMC) 100 % of control | dose: 200.0 mg/kg/injection, schedule: Q01DX001 (ip), vehicle: carboxymethylcellulose (CMC) 92 % of control | dose: 400.0 mg/kg/injection, schedule: Q01DX001 (ip), vehicle: carboxymethylcellulose (CMC) 97 % of control

CCCCN(CCCC)C1=C(Cl)C(=O)c2ccccc2C1=O
inactive: dose: 25.0 mg/kg/injection, schedule: Q04DX003 (ip), vehicle: saline with Tween-80 98 % of control | [1] 98 % of control | [2] 91 % of control

O=C1OCC2(C(=O)O)C(=O)OCC12 (stereo not given)
inactive: dose: 50.0 mg/kg/injection, schedule: Q01DX001 (ip), vehicle: saline 97 % of control | [3] 106 % of control | [4] 106 % of control | [5] 101 % of control

C=C(C)[C@@H]1CC[C@]2(CO)CC[C@]3(C)[C@H](CC[C@@H]4[C@@]5(C)CC[C@H](O)C(C)(C)[C@@H]5CC[C@]43C)[C@@H]12
inactive: [3] 98 % of control | [4] 98 % of control | [5] 98 % of control

O=[N+]([O-])c1ccc2[nH]c3c(c2c1)CSCC3
inactive: dose: 100.0 mg/kg/injection, schedule: Q01DX009 (ip), vehicle: Klucel (hydroxypropylcellulose) (HPC) 121 % of control | dose: 200.0 mg/kg/injection, schedule: Q01DX009 (ip), vehicle: Klucel (hydroxypropylcellulose) (HPC) 97 % of control | dose: 400.0 mg/kg/injection, schedule: Q01DX009 (ip), vehicle: Klucel (hydroxypropylcellulose) (HPC) 92 % of control

CCCN(CCC)C(=O)C(=O)OCC
inactive: [6] 90 % of control | dose: 12.5 mg/kg/injection, schedule: Q01DX009 (ip), vehicle: saline 96 % of control | dose: 25.0 mg/kg/injection, schedule: Q01DX009 (ip), vehicle: saline 93 % of control

COC(=O)C(Cc1ccc(N(CCCl)CCCl)cc1)N=NNc1nc[nH]c1C(N)=O (stereo not given)
inactive: dose: 88.0 mg/kg/injection, schedule: Q01DX001 (ip), vehicle: steriod suspending solution 116 % of control | dose: 133.0 mg/kg/injection, schedule: Q01DX001 (ip), vehicle: steriod suspending solution 115 % of control | dose: 300.0 mg/kg/injection, schedule: Q01DX001 (ip), vehicle: steriod suspending solution 116 % of control

CC(C)C(C)(C)OC(=O)c1ccc([N+](=O)[O-])cc1
inactive: [3] 100 % of control | [4] 96 % of control | [5] 98 % of control

O.O.O=S(=O)(O)O.[Co+3].[NH2-].[NH2-].[NH2-].[NH2-]
inactive: dose: 100.0 mg/kg/injection, schedule: Q04DX002 (ip), vehicle: saline 108 % of control

Nc1nc(Nc2ccccc2)c2ncn(C3OC(CO)C(O)C3O)c2n1 (stereo not given)
inactive: dose: 6.25 mg/kg/injection, schedule: Q01DX005 (ip), vehicle: distilled water + Tween-80 98 % of control | dose: 12.5 mg/kg/injection, schedule: Q01DX005 (ip), vehicle: distilled water + Tween-80 98 % of control | dose: 25.0 mg/kg/injection, schedule: Q01DX005 (ip), vehicle: distilled water + Tween-80 102 % of control | dose: 50.0 mg/kg/injection, schedule: Q01DX005 (ip), vehicle: distilled water + Tween-80 101 % of control | dose: 100.0 mg/kg/injection, schedule: Q01DX005 (ip), vehicle: distilled water + Tween-80 98 % of control

Nc1ccc(N(S(=O)(=O)c2ccccc2)S(=O)(=O)c2ccccc2)c(Cl)c1
inactive: dose: 100.0 mg/kg/injection, schedule: Q01DX001 (ip), vehicle: saline with Tween-80 96 % of control | dose: 200.0 mg/kg/injection, schedule: Q01DX001 (ip), vehicle: saline with Tween-80 98 % of control | dose: 400.0 mg/kg/injection, schedule: Q01DX001 (ip), vehicle: saline with Tween-80 96 % of control

CC(C)(C#N)Nc1ccccc1
inactive: dose: 3.13 mg/kg/injection, schedule: Q01DX009 (ip), vehicle: saline 100 % of control | dose: 6.25 mg/kg/injection, schedule: Q01DX009 (ip), vehicle: saline with Tween-80 91 % of control | [6] 94 % of control | dose: 12.5 mg/kg/injection, schedule: Q01DX009 (ip), vehicle: saline with Tween-80 94 % of control

O=C(O)c1cc(Br)c(O)cc1O
inactive: [2] 97 % of control | [7] 97 % of control | [8] 87 % of control

C/C(=C\c1ccc(Cl)c(Cl)c1)[N+](=O)[O-]
inactive: [3] 104 % of control | [4] 109 % of control | [5] 111 % of control

CCSC#N
inactive: dose: 2.5 mg/kg/injection, schedule: Q01DX009 (ip), vehicle: Klucel (hydroxypropylcellulose) (HPC) 98 % of control | dose: 5.0 mg/kg/injection, schedule: Q01DX009 (ip), vehicle: Klucel (hydroxypropylcellulose) (HPC) 102 % of control | dose: 10.0 mg/kg/injection, schedule: Q01DX009 (ip), vehicle: Klucel (hydroxypropylcellulose) (HPC) 102 % of control

O=C(/C=C/c1ccccn1)c1ccccc1
inactive: dose: 100.0 mg/kg/injection, schedule: Q04DX002 (ip), vehicle: Klucel (hydroxypropylcellulose) (HPC) 97 % of control | dose: 200.0 mg/kg/injection, schedule: Q04DX002 (ip), vehicle: Klucel (hydroxypropylcellulose) (HPC) 104 % of control

O=C(c1ccccc1)c1cc(-c2ccccc2)nc2ccccc2c2ccccc2[nH]1
inactive: dose: 100.0 mg/kg/injection, schedule: Q01DX001 (ip), vehicle: Klucel (hydroxypropylcellulose) (HPC) 93 % of control | dose: 200.0 mg/kg/injection, schedule: Q01DX001 (ip), vehicle: Klucel (hydroxypropylcellulose) (HPC) 91 % of control | dose: 400.0 mg/kg/injection, schedule: Q01DX001 (ip), vehicle: Klucel (hydroxypropylcellulose) (HPC) 100 % of control

NC(=O)CC(N)C(=O)O.[Cl-].[Cl-].[Cl-].[Cl-].[Pt+2] (stereo not given)
inactive: dose: 0.78 mg/kg/injection, schedule: Q01DX009 (ip), vehicle: water 101 % of control | dose: 1.56 mg/kg/injection, schedule: Q01DX009 (ip), vehicle: water 95 % of control | dose: 3.13 mg/kg/injection, schedule: Q01DX009 (ip), vehicle: water 98 % of control | dose: 6.25 mg/kg/injection, schedule: Q01DX009 (ip), vehicle: water 90 % of control | dose: 12.5 mg/kg/injection, schedule: Q01DX009 (ip), vehicle: water 101 % of control

COCC(O)CN1CCN(c2ccccc2C)CC1 (stereo not given)
inactive: [2] 93 % of control

CN1CCC(COC(=O)C(O)(c2ccccc2)c2ccccc2)C1 (stereo not given)
inactive: dose: 25.0 mg/kg/injection, schedule: Q01DX009 (ip), vehicle: saline with Tween-80 100 % of control | dose: 50.0 mg/kg/injection, schedule: Q01DX009 (ip), vehicle: saline with Tween-80 100 % of control | dose: 100.0 mg/kg/injection, schedule: Q01DX009 (ip), vehicle: saline with Tween-80 94 % of control

CC1(C)N=C(N)N=C(N)N1c1cccc(C(C#N)CCCc2ccccc2)c1 (stereo not given)
inactive: dose: 12.5 mg/kg/injection, schedule: Q01DX009 (ip), vehicle: Klucel (hydroxypropylcellulose) (HPC) 104 % of control | dose: 25.0 mg/kg/injection, schedule: Q01DX009 (ip), vehicle: Klucel (hydroxypropylcellulose) (HPC) 104 % of control | dose: 50.0 mg/kg/injection, schedule: Q01DX009 (ip), vehicle: Klucel (hydroxypropylcellulose) (HPC) 88 % of control

NCCS/C=C/C(=O)O
inactive: dose: 100.0 mg/kg/injection, schedule: Q04DX003 (ip), vehicle: saline 97 % of control | dose: 200.0 mg/kg/injection, schedule: Q04DX003 (ip), vehicle: saline 109 % of control | dose: 400.0 mg/kg/injection, schedule: Q04DX003 (ip), vehicle: saline 101 % of control

Cc1ccccc1OCc1ccccc1
inactive: [1] 104 % of control | [2] 98 % of control and 101 % of control | [7] 102 % of control and 104 % of control | [8] 94 % of control

CCC12CCCN=C1c1c([nH]c3ccccc13)CC2 (stereo not given)
inactive: dose: 6.25 mg/kg/injection, schedule: Q04DX002 (ip), vehicle: saline with Tween-80 102 % of control | dose: 12.5 mg/kg/injection, schedule: Q04DX002 (ip), vehicle: saline with Tween-80 104 % of control | dose: 25.0 mg/kg/injection, schedule: Q04DX002 (ip), vehicle: saline with Tween-80 98 % of control
